Data set [1] concerns HCT116 cells. The data set is described as follows: MTT cytotoxicity screening, human colon cancer cell line HCT116. The data set is classed as cell-based. The conditions noted are these: Homo sapiens. The source says:
Human colon cancer cell line HCT116 can be used for the preliminary cytotoxicity screening of the disclosed compounds as disclosed by Mosmann, T., “Rapid colorimetric assay for cellular growth and survival: application to proliferation and cytotoxicity assays.” J. Immunol. Methods, (1983) 65(1-2): p. 55-63 referred to herein further as the “MTT test” which is incorporated herein by reference in its entirety.
The disclosure of Mosmann recites the following. “MTT 93-(4,5-dimethylthirazol-2-yl)-2,5-diphenyl tetrazolium bromide; Sigman catalog no. M2128) was dissolved in PBS at 5 mg/ml and filtered to sterilize and remove a small amount of insoluble residue present in some batches of MTT. At the times indicated below, stock MTT solution (10 ml per 100 ml) was added to all wells of an assay, and plates were incubated at 37° C. for 4 h. Acid-siopropanol (100 ml of 0.04 N HCl in isopropanol) was added to all wells and mixed thoroughly to dissolve the dark blue crystals. After a few minutes at room temperature to ensure that all crystals were dissolved, the plates were read o a Dynatech MR580Microelisa reader, using a test wavelength of 570 nm, a reference wavelength of 630 nm, and a calibration setting of 1.99 (or 1.0 if the samples were strongly colored). Plates were normally read within 1 h of adding the isopropanol.
“Our final procedure was to add 0.01 ml MTT (5 mg/ml in phosphate-buffered saline) to 0.1 ml cells in growth medium. After 4 h at 37° C. for MTT cleavage, the formazan product was solublilized by the addition of 0.1 ml 0.04 N HCl in isopropanol. Optical density was measured on a Dynatech MR 580 plate reader, using a reference wavelength of 630 nm and a test wavelength of 570 nm.” 3-(4,5-Dimethylthiazol-2-yl)-2,5-diphenyltetrazolium bromide, a tetrazole, can pass through cellular membrane to enter into cells. This tetrazole may be reduced to the purple formazan in the mitochondria of living cells, which can diffuse out to form crystals. This crystal can be dissolved in the dimethyl sulfoxide to form a colored solution. The absorbance of this colored solution can be quantified by measuring at certain wavelength (490 nm) using a spectrophotometer. The quantity of the formazan crystal is proportional to the number of living cells.
As used herein, cells were cultured in McCoy's 5A medium supplemented with 10% heat-inactivated Fetal Bovine Serum (FBS) and 5% Penicillin/Streptomycin solution. McCoy's 5A, 1× (Iwakata & Grace modified) medium with L-Glutamine, DPBS, 1× w/o Ca and Mg, Penicillin/Streptomycin solution, Trypsin EDTA, 1× and PBS, 1× w/o Ca and Mg were purchased from Mediatech, Inc. (USA). FBS was purchased from Hyclone (USA).
The cytotoxicity of the compounds was estimated using the MTT assay. A 96-well plate was seeded with 100 μl medium containing HCT116 cells in suspension at a density of 2.5×10^4 cells/ml. After 24 hours of incubation, the cells were treated with the compounds, which were dissolved in DMSO (dimethyl sulfoxide) as stock solutions and diluted to final concentrations of 100 μM, 50 μM, 25 μM, 12.5 μM, 6.25 μM & 1 μM (for compounds tested in the micromolar concentrations) and 10 μM, 1 μM, 500 nM, 250 nM, 125 nM & 62.5 nM (for compounds tested in the nanomolar concentration range) using medium containing 0.1% DMSO. The final concentration of DMSO in the culture medium was maintained at 0.1%-0.001% (v/v). After 48 hrs incubation in the presence of test compounds, the spent medium was removed and the wells were washed twice with 100 μL of PBS solution. 100 μL of fresh medium and 10 μL of MTT (5 mg/ml in PBS) was added to the wells and incubated at 37° C. in dark for 4 hrs. The formazan product was dissolved by adding 100 μL of 100% DMSO after removing the medium from each well and was stabilized by adding 12.5 μL of Sorensen's glycine buffer to each well. […]

Where [2] appears, read: HCT-116, 48 hrs incubation, absorbance 490 nm, primary screening, read-out: IC50.

SMILES strings stand for the structures. Where two headings read alike, the source gives them in different places.

This passage reports melting point and IC50 results from US20120121692A1, “COMPOUNDS AND COMPOSITIONS COMPRISING CDK INHIBITORS AND METHODS FOR TREATING CANCER” (SHANDONG UNIVERSITY, priority 2009, published 2012).

Take `COc1ccc(/C=C/C(=O)c2c(OC)cc(OC)c(CN3CCCCC3)c2O)cc1` [Compound C2, (E)-1-(2-hydroxy-4,6-dimethoxy-3-(piperidin-1-ylmethyl)phenyl)-3-(4-methoxyphenyl)-2-propylene-1-one]: the melting point is 129 to 130 °C. Also, the IC50 in data set [1] (setting [2]) is 5.46 µM.
Regarding `COc1cc(OC)c(C(=O)/C=C/c2cccc(Cl)c2)c(O)c1CN1CCCCC1` [Compound C4], the melting point lay within 134 to 135 °C. Besides, the IC50 in data set [1] (setting [2]) stood at 3.87 µM.
In the case of `COc1cc(OC)c(C(=O)/C=C/c2ccc(C)cc2)c(O)c1CN1CCOCC1` [Compound D1, (E)-1-(2-hydroxy-4,6-dimethoxy-3-(morpholin-4-ylmethyl)phenyl)-3-(4-methylphenyl)-2-propylene-1-one], the melting point was in the range of 126 to 127 °C. Further, the IC50 in data set [1] (setting [2]) came to 14.8 µM.
In turn, `COc1ccc(/C=C/C(=O)c2c(OC)cc(OC)c(CN3CCOCC3)c2O)cc1` [Compound D2, (E)-1-(2-hydroxy-4,6-dimethoxy-3-(morpholin-4-ylmethyl)phenyl)-3-(4-methoxyphenyl)-2-propylene-1-one] had a melting point of 159 to 160 °C. Moreover, the IC50 in data set [1] (setting [2]) worked out at 21.4 µM.
The compound `COc1cc(OC)c(C(=O)/C=C/c2ccc(Cl)cc2)c(O)c1CN1CCOCC1` [Compound D3, (E)-3-(4-chlorophenyl)-1-(2-hydroxy-4,6-dimethoxy-3-(morpholin-4-ylmethyl)phenyl)-2-propylene-1-one] came in with a melting point of 140 to 141 °C. In addition, in data set [1] (setting [2]), the IC50 was determined as 6.97 µM.
`COc1cc(OC)c(C(=O)/C=C/c2ccc(Br)cc2)c(O)c1CN1CCOCC1` [Compound D4, (E)-3-(4-bromophenyl)-1-(2-hydroxy-4,6-dimethoxy-3-(morpholin-4-ylmethyl)phenyl)-2-propylene-1-one] showed a melting point of 144 to 145 °C. In addition, the IC50 in data set [1] (setting [2]) was determined as 5.52 µM. Further, the half-inhibitory concentration (IC50) in data set [1] (HCT-116, further evaluated after secondary screening (Table VIII), read-out: IC50 value) was roughly 3 µM.
Regarding `COc1cc(OC)c(C(=O)/C=C/c2cccc(Cl)c2)c(O)c1CN1CCOCC1` [Compound D5, (E)-3-(3-chlorophenyl)-1-(2-hydroxy-4,6-dimethoxy-3-(morpholinemethyl)phenyl)-2-propylene-1-one], the melting point fell in the range of 135 to 136 °C. The half-inhibitory concentration (IC50) in data set [1] (setting [2]) stood at 2.8 µM.
On the same counts, the results for `COc1cccc(/C=C/C(=O)c2c(OC)cc(OC)c(CN3CCOCC3)c2O)c1` [Compound D6, (E)-3-(3-methoxyphenyl)-1-(2-hydroxy-4,6-dimethoxy-3-(morpholinemethyl)-phenyl)-2-propylene-1-one] are 169 to 170 °C and 2.17 µM.
With `COc1cc(OC)c(C2=CCN(C)CC2)c(O)c1C(=O)/C=C/c1ccco1` [Compound E1, (E)-3-(furan-2-yl)-1-(2-hydroxy-4,6-dimethoxy-3-(1-methyl-1,2,3,6-tetrahydro-pyridine-4-yl)phenyl)-2-propylene-1-one], the melting point fell in the range of 145 to 146 °C. Also, in data set [1] (setting [2]), the IC50 turned out to be 10.2 µM.
As to `COc1cc(OC)c(C2=CCNCC2)c(O)c1C(=O)/C=C/c1ccco1` [Compound E2, (E)-3-(furan-2-yl)-1-(2-hydroxy-4,6-dimethoxy-3-(1,2,3,6-tetrahydropyridin-4-yl)phenyl)-2-propylene-1-one], the melting point lay within 119 to 120 °C. Further, the IC50 in data set [1] (setting [2]) worked out at 11.1 µM.
`COc1cc(OC)c(C(=O)/C=C/c2ccco2)c(O)c1CN1CCCCC1` [Compound E31, (E)-3-(furan-2-yl)-1-(2-hydroxy-4,6-dimethoxy-3-(piperidine-1-ylmethyl)phenyl)-2-propylene-1-one] yielded a melting point of 95 to 96 °C. Also, the IC50 in data set [1] (setting [2]) was 8.52 µM.
For `COc1cc(OC)c(C(=O)/C=C/c2ccco2)c(O)c1CN1CCOCC1` [Compound E32, (E)-3-(furan-2-yl)-1-(2-hydroxy-4,6-dimethoxy-3-(morpholin-4-ylmethyl)phenyl)-2-propylene-1-one], in that order: 147 to 148 °C and 45.7 µM.
The compound `COc1cc(OC)c2c(=O)cc(-c3ccc(C)cc3)oc2c1C1=CCN(C)CC1` [Compound F3, 5,7-dimethoxy-8-(1-methyl-1,2,3,6-tetrahydropyridin-4-yl)-2-(4-methylphenyl)-4H-chromen-4-one] yielded a melting point of 113 to 114 °C. In addition, the 50% inhibitory concentration (IC50) in data set [1] (setting [2]) came out at 21.1 µM.
Compound `COc1ccc(-c2cc(=O)c3c(OC)cc(OC)c(C4=CCN(C)CC4)c3o2)cc1` [Compound F4, 5,7-dimethoxy-8-(1-methyl-1,2,3,6-tetrahydropyridin-4-yl)-2-(4-methoxyphenyl)-4H-chromen-4-one] returned a melting point of 179 to 181 °C. Moreover, in data set [1] (setting [2]), the IC50 turned out to be 17.3 µM.
In turn, `COc1cc(OC)c2c(=O)cc(-c3ccc(N(C)C)cc3)oc2c1C1=CCN(C)CC1` [Compound F5, 5,7-dimethoxy-8-(1-methyl-1,2,3,6-tetrahydropyridin-4-yl)-2-(4-(dimethylamino)-phenyl)-4H-chromen-4-one] returned a melting point of 148 to 150 °C. In addition, the concentration for half-maximal inhibition (IC50) in data set [1] (setting [2]) was determined as 7.71 µM.
As to `COc1cccc(-c2cc(=O)c3c(OC)cc(OC)c(C4=CCN(C)CC4)c3o2)c1OC` [Compound F6, 5,7-dimethoxy-8-(1-methyl-1,2,3,6-tetrahydropyridin-4-yl)-2-(2,3-dimethoxy-phenyl)-4H-chromen-4-one], the melting point fell in the range of 195 to 196 °C. Also, the IC50 in data set [1] (setting [2]) turned out to be 61.3 µM.
On the same counts, the results for `COc1ccc(-c2cc(=O)c3c(OC)cc(OC)c(C4=CCN(C)CC4)c3o2)c(OC)c1OC` [Compound F7, 5,7-dimethoxy-8-(1-methyl-1,2,3,6-tetrahydropyridin-4-yl)-2-(2,3,4-trimethoxy-phenyl)-4H-chromen-4-one] are 209 to 210 °C and 9.17 µM.
Compound `COc1cc(-c2cc(=O)c3c(OC)cc(OC)c(C4=CCN(C)CC4)c3o2)cc(OC)c1OC` [Compound F8, 5,7-dimethoxy-8-(1-methyl-1,2,3,6-tetrahydropyridin-4-yl)-2-(3,4,5-trimethoxy-phenyl)-4H-chromen-4-one] displayed a melting point of 211 to 212 °C. Moreover, in data set [1] (setting [2]), the IC50 was found to be 25.9 µM.
`Cc1cccc(-c2cc(=O)c3c(O)cc(O)c(C4=CCN(C)CC4)c3o2)c1` [Compound G2, 5,7-hydroxy-8-(1-methyl-1,2,3,6-tetrahydropyridin-4-yl)-2-(3-methylphenyl)-4H-chromen-4-one] displayed a melting point of 179 to 180 °C. The IC50 in data set [1] (setting [2]) was 3.65 µM.
With `Cc1ccc(-c2cc(=O)c3c(O)cc(O)c(C4=CCN(C)CC4)c3o2)cc1` [Compound G3, 5,7-hydroxy-8-(1-methyl-1,2,3,6-tetrahydropyridin-4-yl)-2-(4-methylphenyl)-4H-chromen-4-one], the melting point is 160 to 161 °C. Besides, the IC50 in data set [1] (setting [2]) came out at 3.42 µM.
For `COc1ccc(-c2cc(=O)c3c(O)cc(O)c(C4=CCN(C)CC4)c3o2)cc1` [Compound G4, 5,7-hydroxy-8-(1-methyl-1,2,3,6-tetrahydropyridin-4-yl)-2-(4-methoxyphenyl)-4H-chromen-4-one], the melting point lay within 190 to 191 °C. In addition, in data set [1] (setting [2]), the IC50 came to 3.16 µM.
